In brackets after ≈: the same amount, converted by molar mass. Each block holds one compound with its values, some of them ahead of it.
What was measured:
Format in all cases: functional
Candida albicans [1] = test: Antifungal activity against Candida albicans assessed as diameter of zone inhibition by disc diffusion method
Candida albicans [2] = test: Antifungal activity against Candida albicans
Candida tropicalis = test: Antifungal activity against Candida tropicalis assessed as inhibition of fungal growth
Aspergillus niger [3] = test: Antifungal activity against Aspergillus niger assessed as inhibition of fungal growth
Candida albicans [4] = test: Antimicrobial activity against Candida albicans ATCC 64124 assessed as reduction in microbial growth by CLSI protocol based micro-broth dilution method
Candida albicans [5] = test: Antifungal activity against Candida albicans assessed as diameter of zone inhibition
Candida albicans [6] = test: Antifungal activity against Candida albicans assessed as zone of inhibition by disc diffusion method
Saccharomyces cerevisiae [7] = test: Antimicrobial activity against Saccharomyces cerevisiae assessed as zone of inhibition by disc diffusion method
Aspergillus niger [8] = test: Antifungal activity against Aspergillus niger assessed as zone of inhibition by disc diffusion method
Candida albicans [9] = test: Antifungal activity against Candida albicans assessed as zone of inhibition by serial dilution and disc diffusion method
Saccharomyces cerevisiae [10] = test: Antimicrobial activity against Saccharomyces cerevisiae assessed as zone of inhibition
Pichia kudriavzevii = test: Antifungal activity against Candida krusei ATCC 6258
Candida albicans [11] = test: Antifungal activity against Candida albicans ATCC 10231
Nakaseomyces glabratus = test: Antifungal activity against Candida glabrata ATCC 90030
Candida parapsilosis = test: Antifungal activity against Candida parapsilosis ATCC 22019; settings: Lodderomyces parapsilosis

SMILES: Cc1ccc(C(=O)C2C3C(=O)N(c4ccccc4)C(=O)C3C3c4ccccc4C=NN23)cc1 (stereo unspecified)
inhibition zone (IZ) (Candida albicans [1]): 18 mm

MIC (Candida albicans [2]): 0.25 µg/mL (≈ 0.56 µM)
SMILES: O=c1cc[nH]c(=O)n1N=C1CC(c2ccc(Cl)cc2)SC(c2ccc(Cl)cc2)C1 (stereo unspecified)

SMILES: Cc1ccc(C(=O)C2CC(C#N)C3c4ccccc4C=NN23)cc1 (stereo unspecified)
inhibition zone (IZ) (Candida albicans [1]): 18 mm

MIC (Candida tropicalis): 97.3 µM (≈ 29 µg/mL)
MIC (Aspergillus niger [3]): 97.3 µM (≈ 29 µg/mL)
SMILES: Cc1ccc(-c2cc(-c3cnc(Cl)cn3)nc(N)n2)cc1

MIC (Candida albicans [4]): 4 µg/mL
SMILES: Cc1nc(-c2ccc(C(C)(C)C)cc2)sc1-c1ccnc(N[C@H]2CC[C@H](N)CC2)n1

SMILES: CCOC(=O)c1c(C(=O)OCC)c2cc(C)ncn2c1C(=O)c1ccc(OC)cc1
inhibition zone (IZ) (Candida albicans [1]): 24 mm

MIC (Candida tropicalis): 110 µM (≈ 31.4 µg/mL)
MIC (Aspergillus niger [3]): 110 µM (≈ 31.4 µg/mL)
SMILES: Nc1nc(-c2ccncc2)cc(-c2cnc(Cl)cn2)n1

SMILES: COC(=O)C1C(C(=O)OC)C(C(=O)c2ccc([N+](=O)[O-])cc2)N2N=C(c3ccc(Cl)cc3)C=CC12 (stereo unspecified)
inhibition zone (IZ) (Candida albicans [5]): 24 mm

SMILES: CN(C)c1ccc(/C=N/c2ncnc3[nH]ccc23)cc1
inhibition zone (IZ) (Candida albicans [6]): 15 mm
inhibition zone (IZ) (Saccharomyces cerevisiae [7]): 13 mm

MIC (Candida albicans [4]): 4 µg/mL
SMILES: Cc1nc(-c2ccc(C(C)(C)C)cc2)sc1-c1ccnc(N[C@H]2CCCC[C@@H]2N)n1

SMILES: CCOC(=O)C1CC(C(=O)c2ccccc2)N2N=C(c3ccc(Cl)cc3)C=CC12 (stereo unspecified)
inhibition zone (IZ) (Candida albicans [5]): 24 mm

SMILES: Cc1ccc(C2c3c([nH]c(=O)[nH]c3=O)OC(N)C2C#N)cc1 (stereo unspecified)
inhibition zone (IZ) (Aspergillus niger [8]): 10 mm

MIC (Candida tropicalis): 97.3 µM (≈ 29.4 µg/mL)
MIC (Aspergillus niger [3]): 97.3 µM (≈ 29.4 µg/mL)
SMILES: Nc1nc(-c2ccc(F)cc2)cc(-c2cnc(Cl)cn2)n1

SMILES: Cc1ccc(C(=O)C2C3C(=O)N(c4ccccc4)C(=O)C3C3C=CC=NN32)cc1 (stereo unspecified)
inhibition zone (IZ) (Candida albicans [1]): 18 mm

SMILES: O=c1c(C(O)c2ccccc2)c(SCc2ccccc2)[nH]c2nc(-c3ccccc3)c(-c3ccccc3)n12 (stereo unspecified)
inhibition zone (IZ) (Aspergillus niger [8]): 15 mm

MIC (Candida tropicalis): 97.3 µM (≈ 31.8 µg/mL)
MIC (Aspergillus niger [3]): 97.3 µM (≈ 31.8 µg/mL)
SMILES: CN(C)c1ccc(-c2cc(-c3cnc(Cl)cn3)nc(N)n2)cc1

SMILES: COc1cccc(/C=N/Nc2ncnc3[nH]ccc23)c1OC
inhibition zone (IZ) (Candida albicans [9]): 30 mm
inhibition zone (IZ) (Saccharomyces cerevisiae [10]): 24 mm

MIC (Pichia kudriavzevii): 0.78 µg/mL (≈ 2.49 µM)
MIC50 (Candida albicans [11]): 0.78 µg/mL (≈ 2.49 µM)
MIC (Nakaseomyces glabratus): 0.78 µg/mL (≈ 2.49 µM)
MIC (Candida parapsilosis): 0.78 µg/mL (≈ 2.49 µM)
SMILES: Nc1ccc(C(=O)NNc2nc3ccccc3nc2Cl)cc1

MIC (Pichia kudriavzevii): 0.78 µg/mL (≈ 2.9 µM)
MIC50 (Candida albicans [11]): 0.78 µg/mL (≈ 2.9 µM)
MIC (Nakaseomyces glabratus): 0.78 µg/mL (≈ 2.9 µM)
MIC (Candida parapsilosis): 0.78 µg/mL (≈ 2.9 µM)
SMILES: Cc1nc2ccccc2nc1N1CC(C(=O)O)=CC1=O

MIC (Candida tropicalis): 97.3 µM (≈ 29.2 µg/mL)
MIC (Aspergillus niger [3]): 97.3 µM (≈ 29.2 µg/mL)
SMILES: Nc1nc(-c2ccc(O)cc2)cc(-c2cnc(Cl)cn2)n1

SMILES: COc1ccc(/C=N/Nc2ncnc3[nH]ccc23)cc1
inhibition zone (IZ) (Candida albicans [9]): 30 mm
inhibition zone (IZ) (Saccharomyces cerevisiae [10]): 24 mm

SMILES: Cc1ccc(C(=O)C2CC(C#N)C3C=CC=NN23)cc1 (stereo unspecified)
inhibition zone (IZ) (Candida albicans [1]): 18 mm

SMILES: O=[N+]([O-])c1cccc(/C=N/c2ncnc3[nH]ccc23)c1
inhibition zone (IZ) (Candida albicans [6]): 15 mm
inhibition zone (IZ) (Saccharomyces cerevisiae [7]): 13 mm

MIC (Candida tropicalis): 101 µM (≈ 34.6 µg/mL)
MIC (Aspergillus niger [3]): 101 µM (≈ 34.6 µg/mL)
SMILES: COc1ccc(-c2cc(-c3cnc(Cl)cn3)nc(N)n2)c(OC)c1

SMILES: CCOC(=O)c1cc(C(=O)c2ccc(C)cc2)n2ncc3ccccc3c12
inhibition zone (IZ) (Candida albicans [1]): 18 mm

MIC (Candida tropicalis): 97.3 µM (≈ 30.5 µg/mL)
MIC (Aspergillus niger [3]): 97.3 µM (≈ 30.5 µg/mL)
SMILES: COc1ccc(-c2cc(-c3cnc(Cl)cn3)nc(N)n2)cc1

SMILES: CC1=NN(c2ccccc2)C2N=C3SCCN3C(c3ccccc3O)C12 (stereo unspecified)
inhibition zone (IZ) (Aspergillus niger [8]): 24 mm

SMILES: COc1ccc(C(=O)C2CC(C#N)C3C=C(C)N=CN23)cc1 (stereo unspecified)
inhibition zone (IZ) (Candida albicans [1]): 23 mm

SMILES: CC1=NN(c2ccccc2)C2N=C3SCCN3C(c3cccc([N+](=O)[O-])c3)C12 (stereo unspecified)
inhibition zone (IZ) (Aspergillus niger [8]): 24 mm

MIC (Pichia kudriavzevii): 0.78 µg/mL (≈ 2.66 µM)
MIC50 (Candida albicans [11]): 0.78 µg/mL (≈ 2.66 µM)
MIC (Nakaseomyces glabratus): 0.78 µg/mL (≈ 2.66 µM)
MIC (Candida parapsilosis): 0.78 µg/mL (≈ 2.66 µM)
SMILES: Cc1nc2ccccc2nc1NNC(=O)c1ccc(N)cc1

MIC (Candida tropicalis): 110 µM (≈ 31.4 µg/mL)
MIC (Aspergillus niger [3]): 110 µM (≈ 31.4 µg/mL)
SMILES: Nc1nc(-c2cccnc2)cc(-c2cnc(Cl)cn2)n1

SMILES: COc1ccc(/C=N/Nc2ncnc3[nH]ccc23)c(OC)c1
inhibition zone (IZ) (Candida albicans [9]): 30 mm
inhibition zone (IZ) (Saccharomyces cerevisiae [10]): 24 mm

SMILES: COc1ccc(C2c3c([nH]c(=O)[nH]c3=O)OC3N=CN(C(=S)Nc4ccccc4)C(=N)C32)cc1 (stereo unspecified)
inhibition zone (IZ) (Aspergillus niger [8]): 10 mm

SMILES: Brc1cc(Br)cc(/C=N/Nc2ncnc3[nH]ccc23)c1
inhibition zone (IZ) (Candida albicans [9]): 21 mm
inhibition zone (IZ) (Saccharomyces cerevisiae [10]): 21 mm

SMILES: CCC(C)N1C=NC2Oc3[nH]c(=O)[nH]c(=O)c3C(c3ccc(OC)cc3)C2C1=N (stereo unspecified)
inhibition zone (IZ) (Aspergillus niger [8]): 10 mm

MIC (Candida albicans [4]): 4 µg/mL
SMILES: Cc1nc(-c2ccc(C(C)(C)C)cc2)sc1-c1ccnc(NCCCN)n1

MIC (Pichia kudriavzevii): 0.78 µg/mL (≈ 2.73 µM)
MIC50 (Candida albicans [11]): 0.78 µg/mL (≈ 2.73 µM)
MIC (Nakaseomyces glabratus): 0.78 µg/mL (≈ 2.73 µM)
MIC (Candida parapsilosis): 0.78 µg/mL (≈ 2.73 µM)
SMILES: COc1nc2ccccc2nc1N1CC(C(=O)O)=CC1=O

MIC (Candida tropicalis): 97.3 µM (≈ 27.6 µg/mL)
MIC (Aspergillus niger [3]): 97.3 µM (≈ 27.6 µg/mL)
SMILES: Nc1nc(-c2ccccc2)cc(-c2cnc(Cl)cn2)n1

SMILES: CC1=N/C(=C\c2ccc(Cl)cc2)C(=O)N1c1c(N)n(C)c(=O)n(C)c1=O
inhibition zone (IZ) (Candida albicans [6]): 10 mm

MIC (Candida tropicalis): 110 µM (≈ 31.8 µg/mL)
MIC (Aspergillus niger [3]): 110 µM (≈ 31.8 µg/mL)
SMILES: Nc1nc(Cc2ccco2)cc(-c2cnc(Cl)cn2)n1

SMILES: O=[N+]([O-])c1ccccc1/C=N/c1ncnc2[nH]ccc12
inhibition zone (IZ) (Saccharomyces cerevisiae [7]): 13 mm

SMILES: CC1=NN(c2ccccc2)C2N=C3SCCN3C(c3ccccc3Cl)C12 (stereo unspecified)
inhibition zone (IZ) (Aspergillus niger [8]): 24 mm

SMILES: CN(C)C=O [DIMETHYLFORMAMIDE]
inhibition zone (IZ) (Candida albicans [1]): 16 mm

From ChEMBL document CHEMBL6103565, “Current strategies in design and synthesis of antifungals hybrid and chimeric diazine derivatives” (Bioorg Med Chem, 2025)
